# Test system: liver
# Assay: SWIR imaging of hepatobiliary clearance in vivo
# Conditions: 1.7 mg/kg intravenously; mouse
# Method: When injected into a living system, indocyanine green is metabolized by the liver and excreted by the liver and bile ducts by a process called hepatobiliary clearance. This process was observed, noninvasively, by injecting a solution of indocyanine green intravenously into a mouse and using an SWIR imaging system as described herein to observe the fluorescence of indocyanine green. The dye was injected at a dose of 1.7 mg/kg which is below the maximum recommended dose of indocyanine green in humans. […] Despite the fact that 1500 nm is far from the peak emission of indocyanine green, there is sufficient emission intensity from the tail of the emission peak in this wavelength region to obtain a SWIR fluorescence image. Separately, hepatobiliary excretion of ICG into the small intestine in a mouse was also imaged using a near video rate imaging of 19.7 frames per second using a 1200 nm long-pass filter, which enabled capturing the peristaltic movements of the small intestine. Although the frame rate was slower, 2.0 frames per second, it was possible to image the ICG clearance using a 1500 nm long-pass filter, capturing wavelengths between roughly 1500 and 1620 nm.
smiles,measurement,value
"CC1(C)C(/C=C/C=C/C=C/C=C2\N(CCCCS(=O)(=O)O)c3ccc4ccccc4c3C2(C)C)=[N+](CCCCS(=O)(=O)[O-])c2ccc3ccccc3c21 [ICG, indocyanine green]",tissue distribution observed by SWIR fluorescence,Accumulation of indocyanine green in the liver

# Reference: patent publication US10996170B2, “Device and method for imaging shortwave infrared fluorescence” (Massachusetts Institute of Technology, priority 2016, dated 2021)
